The source of these data is patent US4279897A, “(Alkoxycarbonyl)(alkyl)aminosulfenyl derivatives of phosphoramidothioate esters” (priority 1979, dated 1981).

The subject of data set [1] is house flies, Musca domestica. The data set can be described thus: Topical insecticidal activity against house flies (percent mortality 24 h after application, LD50). It counts as in vivo. The settings on record: read-out: House fly LD50. As to the method: Representative compounds of the invention were tested for insecticidal activity against house flies, Musca domestica. Stock 1% concentrated solutions of each of the test compounds were made in acetone, and such solutions diluted with acetone to a concentration of 0.001-0.1%. House flies were treated topically on the notum by 1 μl of each of the diluted acetone solutions and percent mortality was counted 24 hours after application.

Data set [2] is described as follows: Mammalian toxicity, oral, Swiss white mice (LD50). The data set is classed as in vivo. The settings on record: mouse, in vivo; oral, corn oil carrier, Swiss white mice. As to the method: (§1) Mammalian toxicity was determined against Swiss white mice. The test compound was applied orally using corn oil as the carrier.
A further data set concerns Swiss white mice. The experiment in a line: Mammalian toxicity, oral, Swiss white mice (LD50). The settings on record: mouse oral, from Table II. The data set is classed as in vivo. As to the method: as §1
Another data set has as its system mammals. The settings on record: in vivo; cited from earlier work.
The subject of a further data set is insects. The note with it: in vivo; cited from earlier work.
Another data set can be described thus: Water solubility. It counts as physicochemical.

As to `CCN(SNP(=O)(OC)SC)C(=O)OC` (centres unmarked) [Compound 1, O,S-dimethyl N-(N'-methoxycarbonyl-N'-ethylaminosulfenyl)phosphoramidothioate], the results for the LD50 in data set [1] and in data set [2] were 2.8 mg/kg and 30 mg/kg, respectively.
Taken in the same sequence, the figures for `CCCCCCOC(=O)N(CC)SNP(=O)(OC)SC` (centres unmarked) [Compound 2] were 3.8 mg/kg and 34 mg/kg.
In the case of `CCCN(SNP(=O)(OC)SC)C(=O)OC` (centres unmarked) [Compound 3], in data set [1], the median lethal dose (LD50) (as a rule, the dose expected to kill half of the subjects tested) came to 1.6 mg/kg.
Same read-out and setting: as for `CCCN(SNP(=O)(OC)SC)C(=O)OCC` (centres unmarked) [Compound 4], the figure is 2 mg/kg.
In the case of `CCCOC(=O)N(CCC)SNP(=O)(OC)SC` (centres unmarked) [Compound 5], the values for the LD50 in data set [1] and in data set [2] were 1.9 mg/kg and 36 mg/kg, respectively.
For the molecule `CCOC(=O)N(SNP(=O)(OC)SC)C(C)C` (centres unmarked) [Compound 6, O,S-Dimethyl N-[N'-(ethoxycarbonyl)-N'-(isopropylaminosulfenyl)]phosphoramidothioate], the LD50 in data set [1] was 1.9 mg/kg; in data set [2], 50 mg/kg. In the data set on Swiss white mice, the “mammalian toxicity compared with methamidophos” value is recorded as “lower”.
With `COP(=O)(NSN(C(=O)OC(C)C)C(C)C)SC` (centres unmarked) [Compound 7, O,S-Dimethyl N-[N'-(isopropoxycarbonyl)-N'-(isopropylaminosulfenyl)]phosphoramidothioate], the LD50 in data set [1] was 2.7 mg/kg.
Turning to `CCCOC(=O)N(SNP(=O)(OC)SC)C(C)C` (centres unmarked) [Compound 8, O,S-dimethyl N-(N'-propoxycarbonyl-N'-isopropylaminosulfenyl)phosphoramidothioate], the LD50 came out at 2.5 mg/kg in data set [1] and 50 mg/kg in data set [2]. Further, the “mammalian toxicity compared with methamidophos” value in the data set with Swiss white mice is recorded as “lower”.
The like results for `CCOC(=O)N(SNP(=O)(OC)SC)C(C)(C)C` (centres unmarked) [Compound 9, O,S-Dimethyl N-[N'-(ethoxycarbonyl)-N'-(tert.-butylaminosulfenyl)]phosphoramidothioate] were, in that order, 2.5 mg/kg, 50 mg/kg and “lower”.
For the molecule `CCCOC(=O)N(SNP(=O)(OC)SC)C(C)(C)C` (centres unmarked) [Compound 10], the 50% lethal dose (LD50) came to 1.6 mg/kg in data set [1] and 50 mg/kg in data set [2]. Moreover, in the data set with Swiss white mice, the “mammalian toxicity compared with methamidophos” value is “lower”.
Consider `COP(N)(=O)SC` (centres unmarked) [Methamidophos, O,S-dimethyl phosphoramidothiote], for which the “mammalian toxicity (background)” value in the data set on mammals is “high toxicity to both insects and mammals”. Also, the “insecticidal activity / toxicity to insects (background)” value with insects is “high toxicity to both insects and mammals”. For the same molecule, in the data set “Water solubility”, the water solubility result is given as “freely soluble in water”.
Regarding `COP(=O)(NC(C)=O)SC` (centres unmarked) [acephate], the “mammalian toxicity (background)” value in the data set with mammals was “relatively low mammalian toxicity”. Further, in the data set with insects, the “insecticidal activity / toxicity to insects (background)” value was “high insecticidal activity”.
